From patent US8497240B2 (priority 2006, dated 2013) come the findings set out here.

The structures appear in SMILES notation. Where “and” joins values, the source holds several entries; their conditions need not be identical. Identical values can stand only once.

The format of the first assay is in vivo, NIH/Swiss mice. Conditions: 30 nmol/kg.
Method: In FIG. 3A, bars represent mean±sd, n=6-10. […] Gavage (1.5 g/kg) was given at t=0, Sample was taken at t=30 min. […] In FIG. 3B, points represent mean±sem, n=8-15.
Peptide was injected IP at t=−5 minutes into 4-hour fasted NIH/Swiss female mice. […] In FIG. 17 points represent mean+/−sem. […] Samples were taken at t=60, t=120 and t=180.
Consider `CC[C@H](C)[C@H](NC(=O)[C@H](CO)NC(=O)[C@H](Cc1ccc(O)cc1)NC(=O)[C@H](CC(=O)O)NC(=O)[C@H](CO)NC(=O)[C@@H](NC(=O)[C@H](Cc1ccccc1)NC(=O)[C@@H](NC(=O)CNC(=O)[C@H](CCC(=O)O)NC(=O)[C@H](C)NC(=O)[C@@H](N)Cc1ccc(O)cc1)[C@@H](C)O)[C@@H](C)CC)C(=O)N[C@@H](C)C(=O)N[C@@H](CCSC)C(=O)N[C@@H](CC(=O)O)C(=O)N[C@@H](CCCCN)C(=O)N[C@H](C(=O)N[C@@H](Cc1c[nH]cn1)C(=O)N[C@@H](CCC(N)=O)C(=O)N[C@@H](CCC(N)=O)C(=O)N[C@@H](CC(=O)O)C(=O)N[C@@H](Cc1ccccc1)C(=O)N[C@H](C(=O)N[C@@H](CC(N)=O)C(=O)N[C@@H](Cc1c[nH]c2ccccc12)C(=O)N[C@@H](CC(C)C)C(=O)N[C@@H](CC(C)C)C(=O)N[C@@H](C)C(=O)N[C@@H](CCC(N)=O)C(=O)N[C@@H](CCCCN)C(=O)N[C@H](C(=O)N[C@@H](CO)C(=O)N1CCC[C@H]1C(=O)N[C@@H](CCCNC(=N)N)C(=O)N1CCC[C@H]1C(=O)N1CCC[C@H]1C(=O)N[C@@H](CO)C(N)=O)[C@@H](C)O)C(C)C)[C@@H](C)CC` [0601GIP4328], for which the “OGTT/GL (%)” value is recorded as −2, 30%. As to `CC[C@H](C)[C@H](NC(=O)[C@H](CO)NC(=O)[C@H](Cc1ccc(O)cc1)NC(=O)[C@H](CC(=O)O)NC(=O)[C@H](CO)NC(=O)[C@@H](NC(=O)[C@H](Cc1ccccc1)NC(=O)[C@@H](NC(=O)CNC(=O)[C@H](CCC(=O)O)NC(=O)[C@@H](CCC(=O)O)NC(=O)[C@@H](N)Cc1ccc(O)cc1)[C@@H](C)O)[C@@H](C)CC)C(=O)N[C@@H](C)C(=O)N[C@@H](CCSC)C(=O)N[C@@H](CC(=O)O)C(=O)N[C@@H](CCCCN)C(=O)N[C@H](C(=O)N[C@@H](Cc1c[nH]cn1)C(=O)N[C@@H](CCC(N)=O)C(=O)N[C@@H](CCC(N)=O)C(=O)N[C@@H](CC(=O)O)C(=O)N[C@@H](Cc1ccccc1)C(=O)N[C@H](C(=O)N[C@@H](CC(N)=O)C(=O)N[C@@H](Cc1c[nH]c2ccccc12)C(=O)N[C@@H](CC(C)C)C(=O)N[C@@H](CC(C)C)C(=O)N[C@@H](C)C(=O)N[C@@H](CCC(N)=O)C(=O)N[C@@H](CCCCN)C(=O)N1CCC[C@H]1C(=O)N[C@@H](CO)C(=O)N[C@@H](CO)C(=O)NCC(=O)N[C@@H](C)C(=O)N1CCC[C@H]1C(=O)N1CCC[C@H]1C(=O)N1CCC[C@H]1C(=O)N[C@@H](CO)C(N)=O)C(C)C)[C@@H](C)CC` [0601GIP4703], the “OGTT/GL (%)” value is given as −18, 30%. Consider `CC[C@H](C)[C@H](NC(=O)[C@H](CO)NC(=O)[C@H](Cc1ccc(O)cc1)NC(=O)[C@H](CC(=O)O)NC(=O)[C@H](CO)NC(=O)[C@@H](NC(=O)[C@H](Cc1ccccc1)NC(=O)[C@@H](NC(=O)CNC(=O)[C@H](CCC(=O)O)NC(=O)[C@H](C)NC(=O)[C@@H](N)Cc1ccc(O)cc1)[C@@H](C)O)[C@@H](C)CC)C(=O)N[C@@H](C)C(=O)N[C@@H](CCSC)C(=O)N[C@@H](CC(=O)O)C(=O)N[C@@H](CCCCN)C(=O)N[C@H](C(=O)N[C@@H](Cc1c[nH]cn1)C(=O)N[C@@H](CCC(N)=O)C(=O)N[C@@H](CCC(N)=O)C(=O)N[C@@H](CC(=O)O)C(=O)N[C@@H](Cc1ccccc1)C(=O)N[C@H](C(=O)N[C@@H](CC(N)=O)C(=O)N[C@@H](Cc1c[nH]c2ccccc12)C(=O)N[C@@H](CC(C)C)C(=O)N[C@@H](CC(C)C)C(=O)N[C@@H](C)C(=O)N[C@@H](CCC(N)=O)C(=O)N[C@@H](CCCCN)C(=O)N1CCC[C@H]1C(=O)N[C@@H](CCCCN)C(=O)N[C@@H](CCCCN)C(=O)N[C@H](C(=O)N[C@@H](CCCNC(=N)N)C(=O)N[C@@H](Cc1ccc(O)cc1)C(=O)N[C@@H](CO)C(N)=O)[C@@H](C)CC)C(C)C)[C@@H](C)CC` [0601GIP4327], for which the “OGTT/GL (%)” value is given as −7, 30%.

For `CC[C@H](C)[C@H](NC(=O)[C@H](CO)NC(=O)[C@H](Cc1ccc(O)cc1)NC(=O)[C@H](CC(=O)O)NC(=O)[C@H](CO)NC(=O)[C@@H](NC(=O)[C@H](Cc1ccccc1)NC(=O)[C@@H](NC(=O)CNC(=O)[C@H](CCC(=O)O)NC(=O)[C@H](C)NC(=O)[C@@H](N)Cc1ccc(O)cc1)[C@@H](C)O)[C@@H](C)CC)C(=O)N[C@@H](C)C(=O)N[C@@H](CCSC)C(=O)N[C@@H](CC(=O)O)C(=O)N[C@@H](CCCCN)C(=O)N[C@H](C(=O)N[C@@H](Cc1c[nH]cn1)C(=O)N[C@@H](CCC(N)=O)C(=O)N[C@@H](CCC(N)=O)C(=O)N[C@@H](CC(=O)O)C(=O)N[C@@H](Cc1ccccc1)C(=O)N[C@H](C(=O)N[C@@H](CC(N)=O)C(=O)N[C@@H](Cc1c[nH]c2ccccc12)C(=O)N[C@@H](CC(C)C)C(=O)N[C@@H](CC(C)C)C(=O)N[C@@H](C)C(=O)N[C@@H](CCC(N)=O)C(=O)N[C@@H](CCCCN)C(=O)N[C@H](C(=O)N[C@@H](CO)C(=O)N1CCC[C@H]1C(=O)N[C@@H](CCCNC(=N)N)C(=O)N1CCC[C@H]1C(=O)N1CCC[C@H]1C(=O)N[C@@H](CO)C(=O)N[C@@H](CO)C(N)=O)[C@@H](C)O)C(C)C)[C@@H](C)CC` [0601GIP4401], the “OGTT/GL (%)” value is on record as 1, 30%. In the case of `CC[C@H](C)[C@H](NC(=O)[C@H](CO)NC(=O)[C@H](Cc1ccc(O)cc1)NC(=O)[C@H](CC(=O)O)NC(=O)[C@H](CO)NC(=O)[C@@H](NC(=O)[C@H](Cc1ccccc1)NC(=O)[C@@H](NC(=O)CNC(=O)[C@H](CCC(=O)O)NC(=O)CCNC(=O)[C@@H](N)Cc1ccc(O)cc1)[C@@H](C)O)[C@@H](C)CC)C(=O)N[C@@H](C)C(=O)N[C@@H](CCSC)C(=O)N[C@@H](CC(=O)O)C(=O)N[C@@H](CCCCN)C(=O)N[C@H](C(=O)N[C@@H](Cc1c[nH]cn1)C(=O)N[C@@H](CCC(N)=O)C(=O)N[C@@H](CCC(N)=O)C(=O)N[C@@H](CC(=O)O)C(=O)N[C@@H](Cc1ccccc1)C(=O)N[C@H](C(=O)N[C@@H](CC(N)=O)C(=O)N[C@@H](Cc1c[nH]c2ccccc12)C(=O)N[C@@H](CC(C)C)C(=O)N[C@@H](CC(C)C)C(=O)N[C@@H](C)C(=O)N[C@@H](CCC(N)=O)C(=O)N[C@@H](CCCCN)C(=O)N1CCC[C@H]1C(=O)N[C@@H](CO)C(=O)N[C@@H](CO)C(=O)NCC(=O)N[C@@H](C)C(=O)N1CCC[C@H]1C(=O)N1CCC[C@H]1C(=O)N1CCC[C@H]1C(=O)N[C@@H](CO)C(N)=O)C(C)C)[C@@H](C)CC` [0601GIP4458], the “OGTT/GL (%)” value is −14, 30%.

In the case of `CC[C@H](C)[C@H](NC(=O)[C@H](CO)NC(=O)[C@H](Cc1ccc(O)cc1)NC(=O)[C@H](CC(=O)O)NC(=O)[C@H](CO)NC(=O)[C@@H](NC(=O)[C@H](Cc1ccccc1)NC(=O)[C@@H](NC(=O)CNC(=O)[C@H](CCC(=O)O)NC(=O)[C@H](C)NC(=O)[C@H](Cc1ccc(O)cc1)NC(=O)[C@@H](N)CC(C)C)[C@@H](C)O)[C@@H](C)CC)C(=O)N[C@@H](C)C(=O)N[C@@H](CCSC)C(=O)N[C@@H](CC(=O)O)C(=O)N[C@@H](CCCCN)C(=O)N[C@H](C(=O)N[C@@H](Cc1c[nH]cn1)C(=O)N[C@@H](CCC(N)=O)C(=O)N[C@@H](CCC(N)=O)C(=O)N[C@@H](CC(=O)O)C(=O)N[C@@H](Cc1ccccc1)C(=O)N[C@H](C(=O)N[C@@H](CC(N)=O)C(=O)N[C@@H](Cc1c[nH]c2ccccc12)C(=O)N[C@@H](CC(C)C)C(=O)N[C@@H](CC(C)C)C(=O)N[C@@H](C)C(=O)N[C@@H](CCC(N)=O)C(=O)N[C@@H](CCCCN)C(=O)N1CCC[C@H]1C(=O)N[C@@H](CCCCN)C(=O)N[C@@H](CCCCN)C(=O)N[C@H](C(=O)N[C@@H](CCCNC(=N)N)C(=O)N[C@@H](Cc1ccc(O)cc1)C(=O)N[C@@H](CO)C(N)=O)[C@@H](C)CC)C(C)C)[C@@H](C)CC` [0601GIP4799], the “OGTT/GL (%)” value was −10, % and −10, 30%. On the same count and under the same terms, the result for `CC[C@H](C)[C@H](NC(=O)[C@H](CO)NC(=O)[C@H](Cc1ccc(O)cc1)NC(=O)[C@H](CC(=O)O)NC(=O)[C@H](CO)NC(=O)[C@@H](NC(=O)[C@H](Cc1ccccc1)NC(=O)[C@@H](NC(=O)CNC(=O)[C@H](CC(=O)O)NC(=O)[C@H](C)NC(=O)[C@@H](N)Cc1ccc(O)cc1)[C@@H](C)O)[C@@H](C)CC)C(=O)N[C@@H](C)C(=O)N[C@@H](CCSC)C(=O)N[C@@H](CC(=O)O)C(=O)N[C@@H](CCCCN)C(=O)N[C@H](C(=O)N[C@@H](Cc1c[nH]cn1)C(=O)N[C@@H](CCC(N)=O)C(=O)N[C@@H](CCC(N)=O)C(=O)N[C@@H](CC(=O)O)C(=O)N[C@@H](Cc1ccccc1)C(=O)N[C@H](C(=O)N[C@@H](CC(N)=O)C(=O)N[C@@H](Cc1c[nH]c2ccccc12)C(=O)N[C@@H](CC(C)C)C(=O)N[C@@H](CC(C)C)C(=O)N[C@@H](C)C(=O)N[C@@H](CCC(N)=O)C(=O)N[C@@H](CCCCN)C(=O)N1CCC[C@H]1C(=O)N[C@@H](CCCCN)C(=O)N[C@@H](CCCCN)C(=O)N[C@H](C(=O)N[C@@H](CCCNC(=N)N)C(=O)N[C@@H](Cc1ccc(O)cc1)C(=O)N[C@@H](CO)C(N)=O)[C@@H](C)CC)C(C)C)[C@@H](C)CC` [Compound 0601GIP4390] reads 1, 30%.

Staying with this assay, now noted: 350 nmol/kg.
`CC[C@H](C)[C@H](NC(=O)[C@H](CO)NC(=O)[C@H](Cc1ccc(O)cc1)NC(=O)[C@H](CC(=O)O)NC(=O)[C@H](CO)NC(=O)[C@@H](NC(=O)[C@H](Cc1ccccc1)NC(=O)[C@@H](NC(=O)CNC(=O)[C@H](CCC(=O)O)NC(=O)[C@@H](C)NC(=O)[C@@H](N)Cc1ccc(O)cc1)[C@@H](C)O)[C@@H](C)CC)C(=O)N[C@@H](C)C(=O)N[C@@H](CCSC)C(=O)N[C@@H](CC(=O)O)C(=O)N[C@@H](CCCCN)C(=O)N[C@H](C(=O)N[C@@H](Cc1c[nH]cn1)C(=O)N[C@@H](CCC(N)=O)C(=O)N[C@@H](CCC(N)=O)C(=O)N[C@@H](CC(=O)O)C(=O)N[C@@H](Cc1ccccc1)C(=O)N[C@H](C(=O)N[C@@H](CC(N)=O)C(=O)N[C@@H](Cc1c[nH]c2ccccc12)C(=O)N[C@@H](CC(C)C)C(=O)N[C@@H](CC(C)C)C(=O)N[C@@H](C)C(=O)N[C@@H](CCC(N)=O)C(=O)N[C@@H](CCCCN)C(=O)N[C@H](C(=O)N[C@@H](CO)C(=O)N1CCC[C@H]1C(=O)N[C@@H](CCCNC(=N)N)C(=O)N1CCC[C@H]1C(=O)N1CCC[C@H]1C(=O)N[C@@H](CO)C(N)=O)[C@@H](C)O)C(C)C)[C@@H](C)CC` [Compound 0601GIP4236]: the “OGTT/GL (%)” value was −16%.
